For seven molecules, TGI results are on record in PubChem BioAssay (NCI).

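96-well plates; 48 h exposure; 5 concentrations. Endpoints by linear interpolation between flanking doses. Not reached: highest tested concentration assigned. TGI: total growth inhibition.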

Among the test systems are NCI-H226 lung; UACC-257 melanoma; DMS 114 small cell lung; RXF 393 renal; NCI-H460 lung; HCC-2998 colon; M19-MEL melanoma; NCI-H23 lung; NCI/ADR-RES ovarian; HS 578T breast.
Holding throughout (experiment): NCI tumour cell line growth inhibition, 48 h

For the molecule `COc1ccc(C(O)/C(=C/n2ccnc2)c2ccccc2)cc1OC` (stereo not drawn), the TGI in the assay on NCI-H226 lung, in the assay on UACC-257 melanoma, in the assay on DMS 114 small cell lung, with RXF 393 renal, with NCI-H460 lung and in the assay with HCC-2998 colon was more than 100 µM each time. For the same molecule, the TGI in the assay with M19-MEL melanoma and in the assay on NCI-H23 lung was more than 100 µM each time.

Turning to `COC(=O)[C@]12CC=C3O[C@@H]4OC5(CCCCC5)O[C@@H]4[C@H]3C1C(=O)C=CC2=O` (stereo partly drawn), the TGI in the assay on NCI-H226 lung is 34.5 µM; with UACC-257 melanoma, 32.5 µM; in the assay on DMS 114 small cell lung, 33.7 µM; in the assay on NCI/ADR-RES ovarian, 38.5 µM; in the assay on RXF 393 renal, 25.8 µM; in the assay with NCI-H460 lung, 45.5 µM. Further, the TGI was found to be 31.4 µM in the assay on HCC-2998 colon, 30.9 µM in the assay with M19-MEL melanoma, 78.4 µM in the assay with HS 578T breast and 33.6 µM in the assay on NCI-H23 lung.

For `O=CN1CCN(C=S)CC1`, the TGI in the assay with NCI-H226 lung, with UACC-257 melanoma, in the assay on DMS 114 small cell lung, in the assay on RXF 393 renal, with NCI-H460 lung and with HCC-2998 colon was more than 100 µM each time. For the same molecule, the TGI in the assay with M19-MEL melanoma and with NCI-H23 lung was more than 100 µM throughout.

Take `COC(=O)C1=Cc2c(cc(OC)c(OC)c2OC)[C@H](c2ccc(OC)c(OC)c2OC)C1C(=O)OC` (stereo partly drawn): the TGI with NCI-H226 lung, in the assay on UACC-257 melanoma, in the assay on DMS 114 small cell lung, in the assay with RXF 393 renal, with NCI-H460 lung and in the assay on HCC-2998 colon was more than 100 µM throughout. Moreover, the TGI with M19-MEL melanoma and in the assay with NCI-H23 lung was more than 100 µM each time.

`O=C(O)c1ccc(C2C3C=CC(C3)C2[N+](=O)[O-])cc1` (stereo not drawn): the TGI in the assay with NCI-H226 lung, with UACC-257 melanoma, in the assay with DMS 114 small cell lung, in the assay with RXF 393 renal, in the assay with NCI-H460 lung and with HCC-2998 colon was more than 100 µM each time. Besides, the TGI with M19-MEL melanoma and with NCI-H23 lung was more than 100 µM each time.

`NC1=C(Cl)C(=O)c2ccccc2C1=O`: the TGI in the assay with NCI-H226 lung was 18.3 µM; in the assay on UACC-257 melanoma, 8.38 µM; in the assay on DMS 114 small cell lung, 13.4 µM; in the assay on RXF 393 renal it was 18.8 µM; in the assay with NCI-H460 lung it was 11 µM; in the assay with HCC-2998 colon, 24.4 µM. Further, the TGI was found to be 1.76 µM with M19-MEL melanoma and 6.32 µM in the assay on NCI-H23 lung.

On to `NC(=O)c1c2c(cc3c(=O)c4ccccc4[nH]c13)CCCC2`, for which the TGI in the assay on NCI-H226 lung, in the assay on UACC-257 melanoma, with DMS 114 small cell lung, in the assay with RXF 393 renal, in the assay on NCI-H460 lung and with HCC-2998 colon was more than 100 µM each time. In addition, the TGI in the assay with M19-MEL melanoma and with NCI-H23 lung was more than 100 µM in each case.
